The species named for this test is Cavia porcellus. Kind of test: Antioxidative activity was evaluated by using the lipid peroxidation of guinea pig liver microsomes. It counts as functional. For orientation: Liver microsomes are a subcellular fraction often used to study metabolism.
As a reminder, the IC50 is the midpoint of a concentration-inhibition curve. The low end stands for inhibition by little substance, the high end for a need for much substance. The compound `CCCOC(=O)c1cc(O)c(O)c(O)c1` [PROPYL GALLATE] displayed an IC50 of 50 µM.

`COc1c2c(cc(O)c1-c1ccc(C)cc1)OCO2`: the IC50 worked out at 65 µM.

Regarding `COc1c2c(cc(O)c1-c1cccs1)OCO2`, the IC50 turned out to be 44 µM.

For `COc1c2c(cc(O)c1-c1ccc(-c3ccccc3)cc1)OCO2`, the concentration for half-maximal inhibition (IC50) worked out at 107 µM.

Compound `COc1c2c(cc(O)c1-c1cc3ccccc3o1)OCO2` registered a 50% inhibitory concentration (IC50) of 98 µM.

With `COc1ccc(-c2c(O)cc3c(c2OC)OCO3)cc1`, half-maximal inhibition (IC50) required 56 µM.

Turning to `Cc1c(C)c2c(c(C)c1O)CC[C@@](C)(CCC[C@H](C)CCC[C@H](C)CCCC(C)C)O2` [ALPHA-TOCOPHEROL], half-maximal inhibition (IC50) required 280 µM.

`COc1c2c(cc(O)c1-c1ccccc1)OCO2` came in with an IC50 of 83 µM.

The record behind these values is ChEMBL document CHEMBL1132086, “Total synthesis of an antioxidant isolated from yeast via palladium-catalyzed coupling and its application for related compounds” (Bioorg Med Chem Lett, 1999).
